This note sets out measurements from US8263622B2, “Fused-ring derivative and medical application of same” (Kissei Pharmaceutical Co., Ltd., priority 2008, dated 2012).

pIC50: −log10 of the molar value. A value given as a limit tells only on which side of the number the result lay.

Test [1] has as its target T1, Xanthine oxidase (from bovine milk, Sigma) (Bos taurus, UniProt P80457).
T1 construct: Xanthine oxidase (from bovine milk, Sigma); purchased Sigma; host or cells: bovine milk
The test is described as follows: Xanthine oxidase inhibitory activity. The class given is biochemical. The settings on record: xanthine substrate, absorbance at 290 nm, 10 minutes at room temperature. The protocol:
(1) Preparation of Test Compounds
Test compounds were dissolved in DMSO (Wako) at 40 mM concentration and then diluted to intended concentrations with phosphate-buffered saline (PBS).
(2) Method for Measurement
Xanthine oxidase (from bovine milk, Sigma) was prepared with phosphate-buffered saline (PBS) at 0.02 units/mL, and then the solution was added to 96 well plates at 50 μL/well. In addition, test compounds diluted with PBS were added at 50 μL/well. Xanthine (Wako) at 200 μM prepared with PBS was added at 100 μL/well, and the reaction was measured for 10 minutes at room temperature. Absorbance at 290 nm was measured using a microplate reader SpectraMax Plus 384 (Molecular device). The absorbance under a condition without xanthine is 0%, and control without test compounds is 100%. Fifty % inhibitory concentration (IC50) of test compounds was calculated (Table 11). Ex. No. in the table indicates example number.

Test [2] addresses T2, human URAT1 (Homo sapiens, UniProt Q96S37).
T2 construct: expressed in transfected cells; host or cells: COS7 cells (RIKEN CELL BANK RCB0539), transient, pcDNA3.1
T2 sequence (Q96S37 1-553): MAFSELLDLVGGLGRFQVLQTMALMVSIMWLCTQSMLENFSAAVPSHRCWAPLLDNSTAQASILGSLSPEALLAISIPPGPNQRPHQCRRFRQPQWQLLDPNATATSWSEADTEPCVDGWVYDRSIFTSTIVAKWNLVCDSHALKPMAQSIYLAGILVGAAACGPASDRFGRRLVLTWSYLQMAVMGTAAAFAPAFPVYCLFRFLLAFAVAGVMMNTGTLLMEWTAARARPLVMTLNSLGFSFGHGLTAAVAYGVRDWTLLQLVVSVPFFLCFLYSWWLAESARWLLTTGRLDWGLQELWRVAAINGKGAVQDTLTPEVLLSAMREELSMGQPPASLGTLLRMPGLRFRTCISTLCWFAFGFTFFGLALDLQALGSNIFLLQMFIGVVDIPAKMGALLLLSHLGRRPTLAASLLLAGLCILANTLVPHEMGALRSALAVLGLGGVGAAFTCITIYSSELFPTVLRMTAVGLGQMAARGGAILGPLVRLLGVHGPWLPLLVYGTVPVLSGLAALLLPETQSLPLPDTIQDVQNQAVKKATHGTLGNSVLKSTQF
The test is described as follows: Inhibitory activity of uric acid transport with human URAT1 expressing cells. The test is classed as cell-based. To be noted: COS-7; concentration of 100 μM; 14C-uric acid uptake (20 μM) in COS7 cells transiently expressing human URAT1, 5 minutes, 37° C.; read-out: Percent inhibition. The protocol:
(1) Preparation of Transiently Human URAT1 Expressing Cells
Full length human URAT1 cDNA (NCBI Accession No. NM_144585) was subcloned into expression vector, pcDNA3.1 (Invitrogen). Human URAT1 expression vector was transfected into COS7 cells (RIKEN CELL BANK RCB0539) using Lipofectamine 2000 (Invitrogen). COS7 cells were seeded in collagen-coated 24 well plates (Japan Becton Dickinson) at 90-95% confluency and cultured in D-MEM culture medium (Invitrogen) containing 10% fetal bovine serum (Sanko Junyaku) for 2 hours at 37° C. under the condition of 5% CO2. For 1 well, 2 μL of Lipofectamine 2000 was diluted in 50 μL of OPTI-MEM (Invitrogen) and allowed to stand at room temperature for 7 minutes (hereinafter referred to as Lipo2000-OPTI). For 1 well, 0.8 μg of human URAT1 expression vector was diluted in 50 μL of OPTI-MEM (Invitrogen) and combined gently with Lipo2000-OPTI. After standing at room temperature for 25 minutes, the mixture was added to COS7 cells at 100 μL/well. Furthermore, COS7 cells were cultured for 2 days at 37° C. under the condition of 5% CO2 and used for measuring inhibitory activity on the uptake.
(2) Preparation of Test Compounds
Test compounds were dissolved in DMSO (Wako) at 10 mM concentration and then diluted to 2 times higher concentration than intended with pre-treatment buffer (125 mM sodium gluconate, 4.8 mM potassium gluconate, 1.2 mM potassium dihydrogen phosphate, 1.2 mM magnesium sulfate, 1.3 mM calcium gluconate, 5.6 mM glucose, 25 mM Hepes, pH 7.4). Pre-treatment buffer without test compounds was used for control. In addition, an equal volume of pre-treatment buffer containing ^14C-labeled uric acid (American Radiolabeled Chemicals, Inc.) was added to test compounds and control, and finally assay buffer including 20 μM uric acid was prepared.
(3) Method for Measurement
All tests were performed on hot-plate at 37° C. Pre-treatment buffer and assay buffer were incubated at 37° C. and then used for assays. Medium was removed from plates, and 700 μL of pre-treatment buffer was added, and the cells were pre-incubated for 10 minutes. After repeating same step, pre-treatment buffer was removed, and assay buffer was added at 400 μL/well. The uptake reaction was carried out for 5 minutes. After terminating the reaction, assay buffer was rapidly removed, and the cells were washed twice with addition of ice-cold pre-treatment buffer at 1.2 mL/well. Then, the cells were lysed by addition of 0.2N sodium hydroxide at 300 μL/well. The lysed solutions were transferred into Picoplate (PerkinElmer), and Microscinti 40 (PerkinElmer) was added at 600 μL/well. After mixing, the radioactivity was counted in a liquid scintillation counter (PerkinElmer). The radioactivity in COS7 cells not transfected with URAT1 expression vector was also counted under the same condition as control. […] As a result, it was shown that all Examples 2, 6, 7, 12, 13, 15, 22 and 31 have over 80% inhibition in a concentration of 100 μM. Percent inhibition (%)=[1−(B−C)/(A−C)]×100 A: Radioactivity in control B: Radioactivity in the case of addition of test compounds C: Radioactivity in COST cells not transfected with URAT1 expression vector

T1 sequence (P80457 whole entry): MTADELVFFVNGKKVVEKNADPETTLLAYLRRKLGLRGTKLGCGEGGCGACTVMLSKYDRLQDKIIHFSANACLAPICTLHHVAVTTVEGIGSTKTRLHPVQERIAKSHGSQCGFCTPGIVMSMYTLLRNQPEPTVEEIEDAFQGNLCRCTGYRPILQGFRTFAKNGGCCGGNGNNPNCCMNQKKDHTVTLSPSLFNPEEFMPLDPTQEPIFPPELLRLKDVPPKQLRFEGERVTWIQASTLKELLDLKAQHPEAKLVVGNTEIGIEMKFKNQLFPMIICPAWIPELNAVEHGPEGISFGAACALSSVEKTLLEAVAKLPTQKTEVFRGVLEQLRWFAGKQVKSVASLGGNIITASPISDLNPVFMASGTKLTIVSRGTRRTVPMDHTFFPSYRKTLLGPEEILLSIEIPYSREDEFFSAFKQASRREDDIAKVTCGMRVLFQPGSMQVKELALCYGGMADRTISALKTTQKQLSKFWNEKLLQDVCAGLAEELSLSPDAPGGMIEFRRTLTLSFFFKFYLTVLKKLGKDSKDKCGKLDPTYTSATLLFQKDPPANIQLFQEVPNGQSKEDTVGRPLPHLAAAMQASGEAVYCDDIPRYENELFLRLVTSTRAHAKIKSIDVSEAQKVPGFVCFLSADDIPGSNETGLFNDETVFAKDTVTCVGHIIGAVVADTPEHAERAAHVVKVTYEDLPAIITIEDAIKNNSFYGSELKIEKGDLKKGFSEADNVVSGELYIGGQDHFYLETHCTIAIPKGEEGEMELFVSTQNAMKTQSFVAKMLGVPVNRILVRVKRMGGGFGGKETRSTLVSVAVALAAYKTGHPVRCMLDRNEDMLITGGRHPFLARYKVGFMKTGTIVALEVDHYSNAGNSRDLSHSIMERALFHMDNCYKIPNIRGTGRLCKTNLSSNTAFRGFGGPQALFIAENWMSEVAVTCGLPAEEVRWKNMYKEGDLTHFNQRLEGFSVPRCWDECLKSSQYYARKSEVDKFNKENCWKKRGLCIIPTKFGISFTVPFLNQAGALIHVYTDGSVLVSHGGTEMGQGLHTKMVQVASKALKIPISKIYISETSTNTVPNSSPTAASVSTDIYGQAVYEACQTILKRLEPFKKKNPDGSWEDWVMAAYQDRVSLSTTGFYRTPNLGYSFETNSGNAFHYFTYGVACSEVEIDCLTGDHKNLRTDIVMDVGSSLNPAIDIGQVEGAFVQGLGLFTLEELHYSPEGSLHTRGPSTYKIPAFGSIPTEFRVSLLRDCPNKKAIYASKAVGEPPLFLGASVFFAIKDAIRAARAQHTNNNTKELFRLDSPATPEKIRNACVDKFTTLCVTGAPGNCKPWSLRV

As for `Cc1nc(-c2cc(C#N)c3ccccc3c2)sc1C(=O)O` [Example 7, 2-(4-Cyanonaphthalene-2-yl)-4-methylthiazole-5-carboxylic acid], the negative-log IC50 (pIC50) (as a rule, the negative decadic logarithm of the IC50, by convention in mol/L) in test [1] was 8.15. Besides, the inhibition (as a rule, the change of the read-out against control, counted positive when it falls) at 100 µM in test [2] was more than 80%.

Consider `Cc1nc(-c2cc(C#N)c3cccc(F)c3c2)sc1C(=O)O` [Example 13], for which the negative logarithm of the IC50 (pIC50) in test [1] is 8.10. Besides, the inhibition at 100 µM in test [2] is more than 80%.

In test [1], `N#Cc1cc(-c2ccc(C(=O)O)c(O)c2)nc2ccccc12` [Example 6, 4-(4-Cyanoquinoline-2-yl)-2-hydroxy-benzoic acid] gave a negative-log IC50 (pIC50) of 8.10. In addition, the inhibition at 100 µM in test [2] is more than 80%. For `Cc1ccc2cc(-c3nc(C)c(C(=O)O)s3)cc(C#N)c2c1` [Example 8, 2-(4-Cyano-6-methylnaphthalene-2-yl)-4-methylthiazole-5-carboxylic acid], the pIC50 in test [1] was 7.96. `Cc1nc(-c2cc(C#N)c3ccc(F)cc3c2)sc1C(=O)O` [Example 12] showed a pIC50 in test [1] of 8.40. Also, the inhibition at 100 µM in test [2] was more than 80%. In turn, `N#Cc1cc(-c2cc(C(=O)O)ccn2)cc2ccccc12` [Example 1, 2-(4-Cyanonaphthalene-2-yl)isonicotinic acid] showed a negative-log IC50 (pIC50) in test [1] of 7.96. As for `N#Cc1cc(-c2ccc(C(=O)O)cc2)cc2ccccc12` [Example 4, 4-(4-Cyanonaphthalene-2-yl)benzoic acid], the pIC50 in test [1] is 7.70.

With `Cc1ccc2c(C#N)cc(-c3nc(C)c(C(=O)O)s3)cc2c1` [Example 9], the pIC50 in test [1] is 7.59.

In the case of `Cc1nc(-c2cc(C#N)c3c(F)cccc3c2)sc1C(=O)O` [Example 22], in test [1], the negative-log IC50 (pIC50) is 8.15. In addition, the inhibition at 100 µM in test [2] was more than 80%.

`N#Cc1cc(-c2ncc(C(=O)O)s2)cc2ccccc12` [Example 31] gave a negative logarithm of the IC50 (pIC50) in test [1] of 8.70. In addition, the inhibition at 100 µM in test [2] was more than 80%. The compound `Cc1nc(-c2cc(C#N)c3c(C)ccc(F)c3c2)sc1C(=O)O` [Example 15] had a pIC50 in test [1] of 8.15. Moreover, in test [2], the inhibition at 100 µM was more than 80%. The matching figures for `N#Cc1cc(-c2cc(C(=O)O)c(O)cn2)cc2ccccc12` [Example 2, 2-(4-Cyanonaphthalene-2-yl)-5-hydroxyisonicotinic acid]: 7.89 and more than 80%. Regarding `N#Cc1cc(-c2ccc(C(=O)O)cc2)nc2ccccc12` [Example 5, 4-(4-Cyanoquinoline-2-yl)benzoic acid], the negative logarithm of the IC50 (pIC50) in test [1] is 7.09.
